These results are taken from paper PMC10934261, “Designing Potent Anti-Cancer Agents: Synthesis and Molecular Docking Studies of Thieno[2,3-d][1,2,4]triazolo[1,5-a]pyrimidine Derivatives” (Molecules, 2024).

Series [1] relates to human prostate PC-3 cancer cell line. Briefly: In vitro cytotoxic screening (MTT assay), PC-3. Type of series: cell-based. The following applies: for Percentage cytotoxicity on PC-3: average ± standard deviation. For orientation: Formazan colour is commonly taken as a measure of viable cells.
Series [2] relates to human colorectal HCT-116 cancer cell line. Briefly: In vitro cytotoxic screening (MTT assay), HCT-116. In kind it is cell-based. The following applies: for Percentage cytotoxicity on HCT-116: average ± standard deviation.
Series [3] concerns human breast MCF-7 cancer cell line. Briefly: In vitro cytotoxic screening (MTT assay), MCF-7. In kind it is cell-based. The following applies: for Percentage cytotoxicity on MCF-7: average ± standard deviation; for IC50: Homo sapiens, MCF7, MCF-7, 48 h incubation, mean of three values, read-out: IC50 (Mean ± SD) MCF-7.
For series [4], the system named is human skin normal cell line (BJ-1). Briefly: Cytotoxicity on normal cells (MTT assay), BJ-1. In kind it is cell-based. The following applies: for Percentage cytotoxicity on normal BJ1 human skin fibroblast cell line: average ± standard deviation; for IC50: Homo sapiens, BJ-1 normal skin cells, 48 h incubation, mean of three values, read-out: IC50 (Mean ± SD) BJ-1. The protocol: It can therefore be concluded that 10b presents a safer cytotoxicity profile than 10e.
The cell lines were obtained from Karolinska Center, Department of Oncology and Pathology, Karolinska Institute and Hospital, Stockholm, Sweden. as follows: human breast MCF-7, colorectal HCT-116 and prostate PC-3 cancer cell lines and human skin normal BJ-1 cell line. Exponentially, cells were cultured at a concentration of 10^4 cells/well for 24 h, afterwards fresh medium containing different concentrations of the tested samples was added. Serial two-fold dilution of the tested samples were added using a multichannel pipette. Moreover, all cells were cultivated at 37 °C, 5% CO2 and 95% humidity. Also, incubation of control cells occurred at 37 °C. […] After rinsing the wells using water until stain free, 30% glacial acetic acid was added to all wells with shaking the plates on a Microplate reader (TECAN, Inc.) to measure the absorbance at a wavelength of 490 nm. The cytotoxicity was estimated by IC50 in μM, which is the concentration that inhibits 50% of growth of cancer cells. […]
1.1. In vitro cytotoxic screening
The cell lines were obtained from Karolinska Center, Department of Oncology and Pathology, Karolinska Institute and Hospital, Stockholm, Sweden. as follows: human breast MCF-7, colorectal HCT-116 and prostate PC-3 cancer cell lines and human skin normal BJ-1 cell line. Exponentially, cells were placed in 10^4 cells/ well for 24 h, and then add fresh medium which containing different concentration of the tested sample. Serial two-fold dilution of the tested sample were added using a multichannel pipette. Moreover, all cells were cultivated at 37 °C, 5% CO2 and 95% humidity. Also, incubation of control cells occurred at 37 °C. […]
Rinse the wells using water until no stain. After that, add 30% glacial acetic acid to all wells with shaking plates on Microplate reader (TECAN, Inc.) to measure the absorbance, using a test wavelength of 490 nm. Besides, compare the treated samples with the control cell. The cytotoxicity was estimated by IC50 in (μ M), the concentration that inhibits 50% of growth of cancer cell. […]
The molecular docking simulation of the promising in vitro screened cyclopenta[4,5]thieno[2,3-d][1,2,4]triazolo[1,5-a]pyrimidin-9(6H)-ones 10b and 10e against EGFR and PI3K was done using the Molecular Operating Environment software (MOE-Dock) version 2014.0901. The co-crystallized structures of EGFR and PI3K kinases complexed with their native ligands, erlotinib and quinolone LXX, were downloaded from the protein data bank (PDB codes: 1M17 and 3L54, respectively). All minimizations were performed using MOE until an RMSD gradient of 0.05 kcal∙mol−1Å−1 with MMFF94x force field and the partial charges were automatically calculated. Preparation of the enzyme structures was done for molecular docking using Protonate 3D protocol with the default options in MOE. London dG scoring function and Triangle Matcher placement method were used in the docking protocol. Initially, the original ligands were re-docked into the active binding site of EGFR and PI3K kinases to assess the root-mean-square deviation values. Then, the docking studies of the newly targeted compounds were estimated within the ATP-binding sites after elimination of the co-crystallized […]
Percentage cytotoxicity of 100 µM of the compounds on human tumor cell lines*

As for `O=c1c2c3c(sc2nc2[nH]c(-c4ccc(Br)cc4)nn12)CCC3` [Compound 10b, 2-(4-Bromophenyl)-7,8-dihydro-3H-cyclopenta[4,5]thieno[2,3-d][1,2,4]triazolo[1,5-a]pyrimidin-9(6H)-one], the melting point (as a rule, the temperature of the solid-liquid transition) lay in the range of 268 to 270 °C. For the same compound, the “Percentage cytotoxicity on PC-3” value in series [1] (12.5 µM) was 10.9±5.2%. Besides, in series [1] (25 µM), the “Percentage cytotoxicity on PC-3” value came out at 18.4±1.7%. In series [1] (50 µM), the “Percentage cytotoxicity on PC-3” value stood at 22.1±0.6%. In series [1] (100 µM), the “Percentage cytotoxicity on PC-3” value was 41.4±0.7%. Besides, in series [2] (12.5 µM), the “Percentage cytotoxicity on HCT-116” value amounted to 6.2±0.9%. Further, the “Percentage cytotoxicity on HCT-116” value in series [2] (25 µM) is on record as 14.3±1.7%. In series [2] (50 µM), the “Percentage cytotoxicity on HCT-116” value is given as 15.0±2.5%. Also, the “Percentage cytotoxicity on HCT-116” value in series [2] (100 µM) is listed as 24.4±6.6%. In addition, the “Percentage cytotoxicity on MCF-7” value in series [3] (12.5 µM) is recorded as 30.3±4.3%. Also, in series [3] (25 µM), the “Percentage cytotoxicity on MCF-7” value amounted to 64.4±2.2%. Further, the “Percentage cytotoxicity on MCF-7” value in series [3] (50 µM) was 80.8±2.8%. For the same compound, in series [3] (100 µM), the “Percentage cytotoxicity on MCF-7” value was 86.4±10%. Moreover, the IC50 (in general, the concentration that inhibits the measured activity by half) in series [3] amounted to 19.4 ± 0.22 µM. Besides, the “Percentage cytotoxicity on normal BJ1 human skin fibroblast cell line” value in series [4] (12.5 µM) is reported as 16.8±8.3%. Moreover, in series [4] (25 µM), the “Percentage cytotoxicity on normal BJ1 human skin fibroblast cell line” value turned out to be 34.2±7.4%. The “Percentage cytotoxicity on normal BJ1 human skin fibroblast cell line” value in series [4] (50 µM) was 34.6±3.8%. The “Percentage cytotoxicity on normal BJ1 human skin fibroblast cell line” value in series [4] (100 µM) was found to be 39.3±7.7%. Besides, in series [4], the IC50 turned out to be 222 ± 30 µM.
As for `O=c1c2c3c(sc2nc2[nH]c(-c4c5ccccc5cc5ccccc45)nn12)CCC3` [Compound 10e, 2-(Anthracen-9-yl)-3,6,7,8-tetrahydro-9H-cyclopenta[4,5]thieno[2,3-d][1,2,4]triazolo[1,5-a]pyrimidin-9-one], the melting point lay within 101 to 103 °C. Moreover, the “Percentage cytotoxicity on PC-3” value in series [1] (12.5 µM) is 29.6±3.8%. The “Percentage cytotoxicity on PC-3” value in series [1] (25 µM) was 56.6±1.3%. The “Percentage cytotoxicity on PC-3” value in series [1] (50 µM) is 64.2±1.1%. Also, the “Percentage cytotoxicity on PC-3” value in series [1] (100 µM) is on record as 75.9±1.3%. Also, in series [1] (Homo sapiens, PC-3, 48 h incubation, mean of three values, read-out: IC50 (Mean ± SD) PC-3), the IC50 was found to be 25.2 ± 0.4 µM. Moreover, the “Percentage cytotoxicity on HCT-116” value in series [2] (12.5 µM) turned out to be 0.0±0.005%. Further, the “Percentage cytotoxicity on HCT-116” value in series [2] (25 µM) worked out at 19.0±4.9%. Further, the “Percentage cytotoxicity on HCT-116” value in series [2] (50 µM) was 34.9±2.8%. In series [2] (100 µM), the “Percentage cytotoxicity on HCT-116” value worked out at 86.7±4.4%. Further, the IC50 in series [2] (Homo sapiens, HCT-116, 48 h incubation, mean of three values, read-out: IC50 (Mean ± SD) HCT-116) was 57 ± 0.61 µM. In addition, the “Percentage cytotoxicity on MCF-7” value in series [3] (12.5 µM) is on record as 37.9±6.7%. Moreover, the “Percentage cytotoxicity on MCF-7” value in series [3] (25 µM) is recorded as 85.6±3.6%. In addition, in series [3] (50 µM), the “Percentage cytotoxicity on MCF-7” value worked out at 97.9±1.2%. Further, the “Percentage cytotoxicity on MCF-7” value in series [3] (100 µM) amounted to 98.3±0.5%. Besides, the IC50 in series [3] amounted to 14.5 ± 0.3 µM. Moreover, the “Percentage cytotoxicity on normal BJ1 human skin fibroblast cell line” value in series [4] (12.5 µM) stood at 13.8±2.1%. In addition, in series [4] (25 µM), the “Percentage cytotoxicity on normal BJ1 human skin fibroblast cell line” value amounted to 44.8±1.9%. Also, in series [4] (50 µM), the “Percentage cytotoxicity on normal BJ1 human skin fibroblast cell line” value is given as 58.1±3.2%. The “Percentage cytotoxicity on normal BJ1 human skin fibroblast cell line” value in series [4] (100 µM) is on record as 83.9±1.2%. In addition, in series [4], the IC50 amounted to 34.8 ± 4.5 µM.
